Laboratory results reported in US10858362B2, “Imidazopyrazinones as PDE1 inhibitors” (H. Lundbeck A/S, priority 2015, dated 2020).

Columns and labels:
Type in all cases: biochemical
PDE9 = PDE9 (Homo sapiens (Human), UniProt O76083); experiment: PDE9 inhibition assay
Description: A PDE9 assay may for example, be performed as follows: The assay is performed in 60 μL samples containing a fixed amount of the relevant PDE enzyme (sufficient to convert 20-25% of the cyclic nucleotide substrate), a buffer (50 mM HEPES7.6; 10 mM MgCl2; 0.02% Tween20), 0.1 mg/ml BSA, 225 pCi of ^3H-labelled cyclic nucleotide substrate, tritium labeled cAMP to a final concentration of 5 nM and varying amounts of inhibitors. Reactions are initiated by addition of the cyclic nucleotide substrate, and reactions are allowed to proceed for one hr at room temperature before being terminated through mixing with 15 μL 8 mg/mL yttrium silicate SPA beads (Amersham). The beads are allowed to settle for one hr in the dark before the plates are counted in a Wallac 1450 Microbeta counter.
In the context of the present invention the assay was performed in 60 μL assay buffer (50 mM HEPES pH 7.6; 10 mM MgCl2; 0.02% Tween20) containing enough PDE9 to convert 20-25% of 10 nM ^3H-cAMP and varying amounts of inhibitors. Following a 1 hr incubation the reactions were terminated by addition of 15 μL 8 mg/mL yttrium silicate SPA beads (Amersham). The beads were allowed to settle for one hr in the dark before the plates were counted in a Wallac 1450 Microbeta counter.

PDE1C = PDE1C (Homo sapiens (Human), UniProt Q14123); experiment: PDE1 inhibition assay, PDE1C; settings: 15 nM tritium labelled cAMP
Description: (§1) Reactions were initiated by addition of the cyclic nucleotide substrate, and reactions were allowed to proceed for 1 h at room temperature before being terminated through mixing with 20 μL (0.2 mg) yttrium silicate SPA beads (PerkinElmer). The beads were allowed to settle for 1 h in the dark before the plates were counted in a Wallac 1450 Microbeta counter.

PDE1A = PDE1A (Homo sapiens (Human), UniProt P54750); experiment: PDE1 inhibition assay, PDE1A; settings: for IC50: 15 nM tritium labelled cAMP; for inhibition at 2 µM: read-out: PDE1A, % inhibition (at 2 μM)
Description: Reactions were initiated by addition of the cyclic nucleotide substrate, and reactions were allowed to proceed for 1 h at room temperature before being terminated through mixing with 20 μL (0.2 mg) yttrium silicate SPA beads (PerkinElmer).

PDE1B = PDE1B (Homo sapiens (Human), UniProt Q01064); experiment: PDE1 inhibition assay, PDE1B; settings: for IC50: 15 nM tritium labelled cAMP; for inhibition at 2 µM: read-out: PDE1B, % inhibition (at 2 μM)
Description: as §1

Sequence of PDE1B (Q01064 whole entry): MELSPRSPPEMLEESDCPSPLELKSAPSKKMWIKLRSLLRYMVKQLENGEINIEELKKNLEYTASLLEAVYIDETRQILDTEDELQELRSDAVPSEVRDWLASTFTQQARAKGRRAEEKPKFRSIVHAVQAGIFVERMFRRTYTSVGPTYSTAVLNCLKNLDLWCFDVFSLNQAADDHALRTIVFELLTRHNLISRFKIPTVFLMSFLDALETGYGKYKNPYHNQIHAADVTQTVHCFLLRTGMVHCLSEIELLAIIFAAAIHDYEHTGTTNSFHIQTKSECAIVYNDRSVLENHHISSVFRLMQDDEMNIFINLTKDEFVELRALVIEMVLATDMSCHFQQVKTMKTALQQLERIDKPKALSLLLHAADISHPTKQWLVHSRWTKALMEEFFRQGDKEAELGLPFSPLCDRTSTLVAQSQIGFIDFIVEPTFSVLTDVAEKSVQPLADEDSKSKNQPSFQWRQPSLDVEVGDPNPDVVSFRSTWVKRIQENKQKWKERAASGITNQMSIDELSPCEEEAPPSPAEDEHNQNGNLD
Sequence of PDE1A (P54750 whole entry): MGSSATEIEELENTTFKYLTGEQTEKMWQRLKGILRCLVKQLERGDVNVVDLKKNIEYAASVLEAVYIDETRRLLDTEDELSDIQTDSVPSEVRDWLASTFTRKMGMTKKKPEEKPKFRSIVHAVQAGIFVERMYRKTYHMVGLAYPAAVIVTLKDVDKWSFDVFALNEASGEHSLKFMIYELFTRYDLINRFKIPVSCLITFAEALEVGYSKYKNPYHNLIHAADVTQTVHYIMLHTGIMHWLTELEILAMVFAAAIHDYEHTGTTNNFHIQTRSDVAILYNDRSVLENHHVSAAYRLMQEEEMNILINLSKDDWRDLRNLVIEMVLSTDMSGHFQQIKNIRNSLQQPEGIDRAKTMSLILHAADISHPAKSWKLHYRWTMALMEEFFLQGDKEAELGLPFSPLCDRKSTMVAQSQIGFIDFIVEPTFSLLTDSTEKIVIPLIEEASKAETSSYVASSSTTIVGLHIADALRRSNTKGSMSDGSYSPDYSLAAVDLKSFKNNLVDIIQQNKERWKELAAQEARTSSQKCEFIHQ
Sequence of PDE1C (Q14123 whole entry): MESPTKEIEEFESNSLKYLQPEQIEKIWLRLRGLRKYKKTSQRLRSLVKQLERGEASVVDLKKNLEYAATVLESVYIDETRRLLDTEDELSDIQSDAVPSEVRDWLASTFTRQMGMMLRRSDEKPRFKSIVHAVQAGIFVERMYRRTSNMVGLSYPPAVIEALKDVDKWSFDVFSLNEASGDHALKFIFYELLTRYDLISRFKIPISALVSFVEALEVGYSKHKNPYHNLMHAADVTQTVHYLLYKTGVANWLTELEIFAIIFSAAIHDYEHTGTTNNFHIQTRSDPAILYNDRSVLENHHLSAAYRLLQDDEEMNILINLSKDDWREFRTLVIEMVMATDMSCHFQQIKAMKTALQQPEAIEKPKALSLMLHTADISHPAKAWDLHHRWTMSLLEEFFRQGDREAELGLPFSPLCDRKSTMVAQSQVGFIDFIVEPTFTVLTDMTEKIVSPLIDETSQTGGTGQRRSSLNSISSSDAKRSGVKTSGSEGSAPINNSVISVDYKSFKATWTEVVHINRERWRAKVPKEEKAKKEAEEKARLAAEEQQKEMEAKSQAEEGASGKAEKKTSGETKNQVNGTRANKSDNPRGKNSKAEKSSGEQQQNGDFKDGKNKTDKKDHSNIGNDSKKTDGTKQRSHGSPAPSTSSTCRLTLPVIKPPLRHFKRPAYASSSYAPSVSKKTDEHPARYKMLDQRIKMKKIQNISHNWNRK
Sequence of PDE9 (O76083 whole entry): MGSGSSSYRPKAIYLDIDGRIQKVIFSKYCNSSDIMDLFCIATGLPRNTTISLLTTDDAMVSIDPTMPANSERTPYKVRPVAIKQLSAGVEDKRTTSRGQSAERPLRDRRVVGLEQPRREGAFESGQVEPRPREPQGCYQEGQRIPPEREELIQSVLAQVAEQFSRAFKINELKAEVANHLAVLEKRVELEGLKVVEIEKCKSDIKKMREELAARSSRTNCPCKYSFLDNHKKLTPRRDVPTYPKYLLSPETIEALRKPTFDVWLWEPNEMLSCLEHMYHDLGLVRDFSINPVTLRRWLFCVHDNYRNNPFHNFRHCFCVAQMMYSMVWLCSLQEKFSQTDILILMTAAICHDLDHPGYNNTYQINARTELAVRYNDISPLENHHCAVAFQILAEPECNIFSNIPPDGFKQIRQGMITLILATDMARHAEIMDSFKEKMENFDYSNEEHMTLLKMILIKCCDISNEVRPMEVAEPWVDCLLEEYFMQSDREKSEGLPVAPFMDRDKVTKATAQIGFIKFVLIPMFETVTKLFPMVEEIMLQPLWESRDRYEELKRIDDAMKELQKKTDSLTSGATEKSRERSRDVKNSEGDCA

inhibition at 10 µM (PDE9) [%] | IC50 (PDE1C) [nM] | IC50 (PDE1A) [nM] | IC50 (PDE1B) [nM] | inhibition at 2 µM (PDE1A) [%] | inhibition at 2 µM (PDE1B) [%] | Structure (SMILES)
-12 | 300 | 801 | 790 | – | – | CCCc1ncc2c(=O)n(Cc3cccc(F)c3)ccn12 [Example 1, 7-(3-Fluorobenzyl)-3-propylimidazo[1,5-a]pyrazin-8(7H)-one]
-14 | 11 | 51 | 14 | – | – | O=c1c2cnc(C3CCOCC3)n2cc(Cc2ccccc2)n1Cc1cccc(F)c1 [Example 2, 6-Benzyl-7-(3-fluorobenzyl)-3-(tetrahydro-2H-pyran-4-yl)imidazo[1,5-a]pyrazin-8(7H)-one]
-6 | 6 | 8 | 12 | – | – | O=c1c2cnc(C3CCOCC3)n2cc(Cc2ccccc2)n1CC1CCCCC1 [Example 3, 6-Benzyl-7-(cyclohexylmethyl)-3-(tetrahydro-2H-pyran-4-yl)imidazo[1,5-a]pyrazin-8(7H)-one]
-5 | 7 | 11 | 25 | – | – | Cc1cn2c(C3CCOCC3)ncc2c(=O)n1CC1CCCCC1 [Example 4, 7-(Cyclohexylmethyl)-6-methyl-3-(tetrahydro-2H-pyran-4-yl)imidazo[1,5-a]pyrazin-8(7H)-one]
18 | 14 | 108 | 120 | – | – | Cc1cn2c(C3CCOCC3)ncc2c(=O)n1Cc1cccc(F)c1 [Example 5, 7-(3-Fluorobenzyl)-6-methyl-3-(tetrahydro-2H-pyran-4-yl)imidazo[1,5-a]pyrazin-8(7H)-one]
25 | 290 | – | – | 68 | 81 | O=c1c2cnc(C3CC3)n2ccn1Cc1cccc(F)c1 [Example 6, 3-Cyclopropyl-7-(3-fluorobenzyl)imidazo[1,5-a]pyrazin-8(7H)-one]
1 | 230 | – | – | 60 | 85 | O=c1c2cnc(C3CC3)n2ccn1CC1CCCC1 [Example 7, 7-(Cyclopentylmethyl)-3-cyclopropylimidazo[1,5-a]pyrazin-8(7H)-one]
9 | 100 | 252 | 67 | – | – | O=c1c2cnc(C3CC3)n2ccn1CC1CCCCC1 [Example 8, 7-(Cyclohexylmethyl)-3-cyclopropylimidazo[1,5-a]pyrazin-8(7H)-one]
2 | 170 | – | – | 68 | 90 | O=c1c2cnc(C3CCOCC3)n2ccn1Cc1cccc(F)c1 [Example 9, 7-(3-Fluorobenzyl)-3-(tetrahydro-2H-pyran-4-yl)imidazo[1,5-a]pyrazin-8(7H)-one]
8 | 79 | – | – | 73 | 88 | O=c1c2cnc(C3CCOCC3)n2ccn1CC1CCCC1 [Example 10, 7-(Cyclopentylmethyl)-3-(tetrahydro-2H-pyran-4-yl)imidazo[1,5-a]pyrazin-8(7H)-one]
18 | 43 | 113 | 72 | – | – | O=c1c2cnc(C3CCOCC3)n2ccn1CC1CCCCC1 [Example 11, 7-(Cyclohexylmethyl)-3-(tetrahydro-2H-pyran-4-yl)imidazo[1,5-a]pyrazin-8(7H)-one]
12 | 16 | 30 | 21 | – | – | O=c1c2cnc(C3CCOCC3)n2ccn1CC1CCCCCC1 [Example 12, 7-(Cycloheptylmethyl)-3-(tetrahydro-2H-pyran-4-yl)imidazo[1,5-a]pyrazin-8(7H)-one]
7 | 62 | 87 | 50 | – | – | O=c1c2cnc(C3CC3)n2ccn1CC1CCCCCC1 [Example 13, 7-(Cycloheptylmethyl)-3-cyclopropylimidazo[1,5-a]pyrazin-8(7H)-one]
22 | 51 | 18 | 15 | – | – | Cc1cn2c(C3CCOCC3)ncc2c(=O)n1Cc1ccc(Cl)cc1 [Example 14, 7-(4-Chlorobenzyl)-6-methyl-3-(tetrahydro-2H-pyran-4-yl)imidazo[1,5-a]pyrazin-8(7H)-one]
15 | 15 | 58 | 115 | – | – | O=c1c2cnc(C3CCOCC3)n2cc(Br)n1Cc1cccc(F)c1 [Example 15, 6-Bromo-7-(3-fluorobenzyl)-3-(tetrahydro-2H-pyran-4-yl)imidazo[1,5-a]pyrazin-8(7H)-one]
19 | 12 | 85 | 57 | – | – | Cc1cn2c(C3CCOCC3)ncc2c(=O)n1Cc1ccccc1 [Example 16, 7-Benzyl-6-methyl-3-(tetrahydro-2H-pyran-4-yl)imidazo[1,5-a]pyrazin-8(7H)-one]
7 | 9 | 42 | 36 | – | – | Cc1cn2c(C3CCOCC3)ncc2c(=O)n1Cc1ccccc1F [Example 17, 7-(2-Fluorobenzyl)-6-methyl-3-(tetrahydro-2H-pyran-4-yl)imidazo[1,5-a]pyrazin-8(7H)-one]
31 | 8 | 57 | 49 | – | – | Cc1cn2c(C3CCOCC3)ncc2c(=O)n1Cc1cccc(Cl)c1 [Example 18, 7-(3-Chlorobenzyl)-6-methyl-3-(tetrahydro-2H-pyran-4-yl)imidazo[1,5-a]pyrazin-8(7H)-one]
18 | 10 | 46 | 68 | – | – | Cc1cn2c(C3CCOCC3)ncc2c(=O)n1Cc1ccccc1Cl [Example 19, 7-(2-Chlorobenzyl)-6-methyl-3-(tetrahydro-2H-pyran-4-yl)imidazo[1,5-a]pyrazin-8(7H)-one]
-38 | 62 | 416 | 175 | – | – | COc1cccc(Cn2c(C)cn3c(C4CCOCC4)ncc3c2=O)c1 [Example 20, 7-(3-Methoxybenzyl)-6-methyl-3-(tetrahydro-2H-pyran-4-yl)imidazo[1,5-a]pyrazin-8(7H)-one]
-14 | 30 | 242 | 195 | – | – | Cc1ccccc1Cn1c(C)cn2c(C3CCOCC3)ncc2c1=O [Example 21, 6-Methyl-7-(2-methylbenzyl)-3-(tetrahydro-2H-pyran-4-yl)imidazo[1,5-a]pyrazin-8(7H)-one]
50 | 67 | 75 | 28 | – | – | Cc1ccc(Cn2c(C)cn3c(C4CCOCC4)ncc3c2=O)cc1 [Example 22, 6-Methyl-7-(4-methylbenzyl)-3-(tetrahydro-2H-pyran-4-yl)imidazo[1,5-a]pyrazin-8(7H)-one]
16 | 19 | 14 | 12 | – | – | COc1ccc(Cn2c(C)cn3c(C4CCOCC4)ncc3c2=O)cc1 [Example 23, 7-(4-Methoxybenzyl)-6-methyl-3-(tetrahydro-2H-pyran-4-yl)imidazo[1,5-a]pyrazin-8(7H)-one]
-1 | 17 | 38 | 43 | – | – | Cc1cn2c(C3CCOCC3)ncc2c(=O)n1Cc1ccc(F)cc1 [Example 24, 7-(4-Fluorobenzyl)-6-methyl-3-(tetrahydro-2H-pyran-4-yl)imidazo[1,5-a]pyrazin-8(7H)-one]
